PubChem BioAssay (NCI)
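96-well plates; 48 h exposure; 5 concentrations. Endpoints by linear interpolation between flanking doses. Not reached: highest tested concentration assigned. TGI is the concentration that stops growth completely.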

Tests used:
Test in all cases: NCI anticancer screen, dose series, 48 h
HCT-15 colon = tested on: HCT-15 colon
M14 melanoma = tested on: M14 melanoma
RPMI-8226 leukemia = tested on: RPMI-8226 leukemia
CCRF-CEM leukemia = tested on: CCRF-CEM leukemia
UO-31 renal = tested on: UO-31 renal
MALME-3M melanoma = tested on: MALME-3M melanoma
BT-549 breast = tested on: BT-549 breast
MDA-MB-231 breast = tested on: MDA-MB-231 breast
A549 NSCLC = tested on: A549 NSCLC
NCI/ADR-RES ovarian = tested on: NCI/ADR-RES ovarian
KM12 colon = tested on: KM12 colon
SF-295 CNS = tested on: SF-295 CNS
HL-60(TB) leukemia = tested on: HL-60(TB) leukemia
OVCAR-4 ovarian = tested on: OVCAR-4 ovarian
OVCAR-5 ovarian = tested on: OVCAR-5 ovarian
EKVX NSCLC = tested on: EKVX NSCLC
SNB-19 CNS = tested on: SNB-19 CNS
SN12C renal = tested on: SN12C renal
CAKI-1 renal = tested on: CAKI-1 renal
IGROV1 ovarian = tested on: IGROV1 ovarian
NCI-H23 lung = tested on: NCI-H23 lung
T-47D breast = tested on: T-47D breast
NCI-H460 lung = tested on: NCI-H460 lung
MOLT-4 leukemia = tested on: MOLT-4 leukemia
COLO 205 colon = tested on: COLO 205 colon
SF-268 CNS = tested on: SF-268 CNS
K-562 leukemia = tested on: K-562 leukemia
TK-10 renal = tested on: TK-10 renal
SK-OV-3 ovarian = tested on: SK-OV-3 ovarian
A498 renal = tested on: A498 renal
HT29 colon = tested on: HT29 colon
SNB-75 CNS = tested on: SNB-75 CNS
MDA-MB-435 = tested on: MDA-MB-435
HOP-92 NSCLC = tested on: HOP-92 NSCLC
HS 578T breast = tested on: HS 578T breast
ACHN renal = tested on: ACHN renal
MDA-N = tested on: MDA-N
HCC-2998 colon = tested on: HCC-2998 colon
MCF7 breast = tested on: MCF7 breast
HOP-62 NSCLC = tested on: HOP-62 NSCLC
786-0 renal = tested on: 786-0 renal
SR leukemia = tested on: SR leukemia
SK-MEL-5 melanoma = tested on: SK-MEL-5 melanoma
NCI-H522 lung = tested on: NCI-H522 lung
PC-3 prostate = tested on: PC-3 prostate
UACC-257 melanoma = tested on: UACC-257 melanoma
HCT-116 colon = tested on: HCT-116 colon
SW-620 colon = tested on: SW-620 colon
SF-539 CNS = tested on: SF-539 CNS
DU-145 prostate = tested on: DU-145 prostate
OVCAR-3 ovarian = tested on: OVCAR-3 ovarian
SK-MEL-28 melanoma = tested on: SK-MEL-28 melanoma
NCI-H226 lung = tested on: NCI-H226 lung
UACC-62 melanoma = tested on: UACC-62 melanoma
RXF 393 renal = tested on: RXF 393 renal
U251 CNS = tested on: U251 CNS

`NCCCN(CCCCN(CCCN)Cc1ccc2ccccc2c1)Cc1ccc2ccccc2c1` was tested, and the TGI (HCT-15 colon) was 13.1 µM, the TGI (M14 melanoma) was 3.63 µM and the TGI (RPMI-8226 leukemia) was 6.88 µM. For the same compound, the TGI (CCRF-CEM leukemia) was over 100 µM, the TGI (UO-31 renal) was 6.1 µM and the TGI (MALME-3M melanoma) was 3.39 µM. The TGI (BT-549 breast) was 3.89 µM, the TGI (MDA-MB-231 breast) was 11.8 µM and the TGI (A549 NSCLC) was 3.2 µM. It also gave a TGI (NCI/ADR-RES ovarian) of 54.3 µM, a TGI (KM12 colon) of 3.32 µM and a TGI (SF-295 CNS) of 3.7 µM. For the same compound, the TGI (HL-60(TB) leukemia) was over 100 µM, the TGI (OVCAR-4 ovarian) was 4.09 µM and the TGI (OVCAR-5 ovarian) was 3.44 µM. The TGI (EKVX NSCLC) was 3.37 µM, the TGI (SNB-19 CNS) was 2.86 µM and the TGI (SN12C renal) was 3.08 µM. It also gave a TGI (CAKI-1 renal) of 3.15 µM, a TGI (IGROV1 ovarian) of 3.3 µM and a TGI (NCI-H23 lung) of 3.34 µM. It also gave a TGI (T-47D breast) of 5.03 µM, a TGI (NCI-H460 lung) of 3.43 µM and a TGI (MOLT-4 leukemia) of 4.74 µM. For the same compound, the TGI (COLO 205 colon) was 5.22 µM, the TGI (SF-268 CNS) was 2.57 µM and the TGI (K-562 leukemia) was over 100 µM. It also gave a TGI (TK-10 renal) of 5.05 µM, a TGI (SK-OV-3 ovarian) of 3.39 µM and a TGI (A498 renal) of 5.06 µM. It also gave a TGI (HT29 colon) of 3.11 µM, a TGI (SNB-75 CNS) of 3.89 µM and a TGI (MDA-MB-435) of 4.27 µM. It also gave a TGI (HOP-92 NSCLC) of 5.75 µM, a TGI (HS 578T breast) of 3.06 µM and a TGI (ACHN renal) of 3.3 µM. The TGI (MDA-N) was 3.3 µM and the TGI (HCC-2998 colon) was 9.37 µM.

Work on `CCCC(=O)NC1=C(NCC)C(=O)c2ccccc2C1=O` yielded a TGI (HCT-15 colon) of over 100 µM, a TGI (MCF7 breast) of over 100 µM and a TGI (HOP-62 NSCLC) of over 100 µM. It also gave a TGI (RPMI-8226 leukemia) of over 100 µM, a TGI (786-0 renal) of over 100 µM and a TGI (CCRF-CEM leukemia) of over 100 µM. For the same compound, the TGI (SR leukemia) was over 100 µM, the TGI (SK-MEL-5 melanoma) was over 100 µM and the TGI (NCI-H522 lung) was over 100 µM. For the same compound, the TGI (MALME-3M melanoma) was over 100 µM, the TGI (PC-3 prostate) was over 100 µM and the TGI (BT-549 breast) was over 100 µM. The TGI (UACC-257 melanoma) was over 100 µM, the TGI (MDA-MB-231 breast) was over 100 µM and the TGI (A549 NSCLC) was over 100 µM. For the same compound, the TGI (HCT-116 colon) was over 100 µM, the TGI (KM12 colon) was over 100 µM and the TGI (SF-295 CNS) was over 100 µM. It also gave a TGI (SW-620 colon) of over 100 µM, a TGI (HL-60(TB) leukemia) of over 100 µM and a TGI (OVCAR-4 ovarian) of over 100 µM. It also gave a TGI (OVCAR-5 ovarian) of over 100 µM, a TGI (SNB-19 CNS) of over 100 µM and a TGI (SN12C renal) of over 100 µM. For the same compound, the TGI (IGROV1 ovarian) was over 100 µM, the TGI (NCI-H23 lung) was over 100 µM and the TGI (T-47D breast) was over 100 µM. It also gave a TGI (NCI-H460 lung) of over 100 µM, a TGI (MOLT-4 leukemia) of over 100 µM and a TGI (COLO 205 colon) of over 100 µM. The TGI (SF-268 CNS) was over 100 µM, the TGI (K-562 leukemia) was over 100 µM and the TGI (TK-10 renal) was over 100 µM. The TGI (SF-539 CNS) was over 100 µM, the TGI (SK-OV-3 ovarian) was over 100 µM and the TGI (HT29 colon) was over 100 µM. For the same compound, the TGI (DU-145 prostate) was over 100 µM, the TGI (OVCAR-3 ovarian) was over 100 µM and the TGI (SNB-75 CNS) was over 100 µM. The TGI (SK-MEL-28 melanoma) was over 100 µM, the TGI (MDA-MB-435) was 78.1 µM and the TGI (HOP-92 NSCLC) was over 100 µM. The TGI (HS 578T breast) was over 100 µM, the TGI (ACHN renal) was over 100 µM and the TGI (MDA-N) was 63.2 µM. The TGI (NCI-H226 lung) was over 100 µM, the TGI (UACC-62 melanoma) was over 100 µM and the TGI (HCC-2998 colon) was over 100 µM. For the same compound, the TGI (RXF 393 renal) was over 100 µM and the TGI (U251 CNS) was over 100 µM.
